# Experiments:
# PI3K-gamma = PI3K-gamma (Homo sapiens, UniProt P48736); assay: PI3K-gamma fluorescence polarization assay; type: biochemical; settings: 20 μM PIP2, 25 μM ATP; read-out: PI3Kγ IC50
# Protocol: The reaction buffer was 20 mM HEPES, pH 7.5, 2 mM MgCl2, 0.05% CHAPS; and 0.01% βME (added fresh). The stop/detection buffer was 100 mM HEPES, pH 7.5, 4 mM EDTA, 0.05% CHAPS; ATP 20 mM in water; PIP2 (diC8, Echelon, Salt Lake City Utah cat #P-4508) 1 mM in water (MW=856.5). The GST-GRP was 1.75 mg/mL or 1.4 mg/mL in 10% glycerol. The red detector (TAMRA) was 2.5 μM. Nunc 384-well black polypropylene fluorescent plates were used for PI3K assays.
# The assay is run by placing 5 μL of diluted enzyme per well, then 5 μL of diluted compound (or 9.5 μL enzyme then 0.5 μL compound in DMSO) is added and mixed. Then, 10 μL substrate is added to start the reaction. The samples are incubated 30-60 minutes, then the reaction is stopped by adding 20 μL stop/detector mix. PI3K is diluted with reaction buffer (e.g., 5 μL or 7.5 μL PI3K into 620 μL reaction buffer), and 5 μL of diluted enzyme is used per well. A 5 μL portion of reaction buffer or of drug diluted in buffer (e.g., 4 μL/100 so final DMSO is 1% in reaction) is added to each. Pipetting up and down mixes the samples. Alternatively, the enzyme can be diluted to 1215 μL. In this case 9.8 μL is added per well and 0.2 μL compound is added in DMSO.
# To prepare 1 mL of substrate solution, 955 μL reaction buffer, 40 μL PIP2, and 2.5 μL ATP are mixed. 10 μL of substrate is added to each well to start the reaction. […] The stop/detector mix is prepared by mixing 4 μL red detector and 1.6 μL or 2.0 μL GST-GRP with 1 mL stop buffer, which results in 10 nM probe and 70 nM GST-GRP. 20 μL of the stop/detector mix is added to each well to stop the reaction. The plates are read after 30-90 minutes keeping the red probe solutions dark. For the zero time point, stop/detector mix is added to the enzyme just before adding substrate. For an extra control, stop/detector mix is added to buffer (no enzyme) and substrate or to just buffer (no substrate). […] The recommended reaction has 0.06 μL per 20 μL (0.015 μg/20 μL) or 0.01125 μg/15 μL or 0.75 μg/mL.
# Plates are read on machines with filters for TAMRA. The units are mP with no enzyme controls reading app 190-220 mP units. Fully active enzyme reduces fluorescence polarization down to 70-100 mP after 30 minutes. An active compound raises the mP values halfway to control or to 120-150 mP units.
# mTOR = mTOR (Homo sapiens, UniProt P42345); assay: mTOR enzyme assay (DELFIA, purified FLAG-TOR, His6-S6K substrate); type: biochemical; design: FLAG; settings: 100 μM ATP, 2 hours
# PI3K-alpha = PI3K-alpha (Homo sapiens, UniProt P42336); assay: PI3K-alpha fluorescence polarization assay; type: biochemical; settings: 20 μM PIP2, 25 μM ATP; read-out: PI3Kα IC50
# Method in brief: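 PIP2 (diC8) and ATP substrate with PI3K in 20 mM HEPES pH 7.5, 2 mM MgCl2, 0.05% CHAPS, 0.01% βME; 1% DMSO final; 30–60 min reaction. Stopped with EDTA plus GST-GRP (70 nM) and TAMRA probe (10 nM); FP (mP) read after 30–90 min, with no-enzyme controls.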
# LNCap = assay: In vitro cell growth assay (MTS), LNCap; type: cell-based; settings: LNCaP, 72 h, human prostate line, three days after drug treatment
# MDA468 = assay: In vitro cell growth assay (MTS), MDA468; type: cell-based; settings: 72 h, human breast line MDA468, three days after drug treatment, read-out: MDA IC50
# Sequence of PI3K-alpha (P42336 whole entry, species assumed): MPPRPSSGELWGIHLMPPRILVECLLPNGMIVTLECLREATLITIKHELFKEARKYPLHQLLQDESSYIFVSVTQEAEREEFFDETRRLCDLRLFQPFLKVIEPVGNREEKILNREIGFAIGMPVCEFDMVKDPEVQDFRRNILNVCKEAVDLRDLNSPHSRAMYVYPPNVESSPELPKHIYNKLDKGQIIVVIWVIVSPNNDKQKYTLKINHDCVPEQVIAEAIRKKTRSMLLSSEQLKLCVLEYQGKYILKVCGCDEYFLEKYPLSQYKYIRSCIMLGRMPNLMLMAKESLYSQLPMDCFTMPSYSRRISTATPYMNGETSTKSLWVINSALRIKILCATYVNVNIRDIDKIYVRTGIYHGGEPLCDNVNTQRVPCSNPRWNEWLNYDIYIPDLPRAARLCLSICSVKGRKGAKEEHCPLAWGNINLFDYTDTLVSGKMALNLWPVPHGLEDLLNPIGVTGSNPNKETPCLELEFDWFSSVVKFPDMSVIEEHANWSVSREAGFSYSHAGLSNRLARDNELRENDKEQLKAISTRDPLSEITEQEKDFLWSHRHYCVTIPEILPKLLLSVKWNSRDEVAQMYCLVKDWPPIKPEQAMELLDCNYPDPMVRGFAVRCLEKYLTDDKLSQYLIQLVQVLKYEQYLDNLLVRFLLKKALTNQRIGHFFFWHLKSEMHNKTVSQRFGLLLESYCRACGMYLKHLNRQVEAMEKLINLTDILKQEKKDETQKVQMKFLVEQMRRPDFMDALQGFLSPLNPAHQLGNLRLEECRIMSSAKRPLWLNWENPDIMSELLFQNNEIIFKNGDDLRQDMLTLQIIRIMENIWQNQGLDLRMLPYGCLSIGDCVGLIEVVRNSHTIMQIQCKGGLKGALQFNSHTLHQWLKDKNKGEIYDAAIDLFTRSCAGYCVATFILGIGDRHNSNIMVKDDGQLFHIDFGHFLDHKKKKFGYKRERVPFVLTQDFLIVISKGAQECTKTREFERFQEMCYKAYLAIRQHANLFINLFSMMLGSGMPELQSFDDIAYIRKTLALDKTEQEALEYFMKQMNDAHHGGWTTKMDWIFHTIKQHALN
# Sequence of PI3K-alpha (P27986 whole entry partner, species assumed): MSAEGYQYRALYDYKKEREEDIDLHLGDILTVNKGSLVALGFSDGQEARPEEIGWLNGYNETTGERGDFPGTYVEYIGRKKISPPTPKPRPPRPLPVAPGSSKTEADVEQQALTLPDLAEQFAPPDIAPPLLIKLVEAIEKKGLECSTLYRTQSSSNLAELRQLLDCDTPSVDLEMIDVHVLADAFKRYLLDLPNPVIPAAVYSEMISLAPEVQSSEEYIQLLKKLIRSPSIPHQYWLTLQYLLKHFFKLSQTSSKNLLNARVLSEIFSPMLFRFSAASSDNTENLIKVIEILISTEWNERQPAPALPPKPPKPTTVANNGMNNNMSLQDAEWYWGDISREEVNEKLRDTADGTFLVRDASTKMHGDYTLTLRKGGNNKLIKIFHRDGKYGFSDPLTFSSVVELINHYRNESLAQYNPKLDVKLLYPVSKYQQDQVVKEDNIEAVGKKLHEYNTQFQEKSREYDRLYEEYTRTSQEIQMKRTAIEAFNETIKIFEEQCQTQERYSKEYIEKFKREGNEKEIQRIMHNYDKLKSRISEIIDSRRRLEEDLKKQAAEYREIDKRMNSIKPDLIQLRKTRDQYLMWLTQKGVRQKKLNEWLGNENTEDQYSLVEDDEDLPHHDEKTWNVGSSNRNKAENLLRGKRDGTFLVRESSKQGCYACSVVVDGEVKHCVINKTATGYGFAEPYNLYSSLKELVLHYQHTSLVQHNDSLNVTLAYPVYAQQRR
# Sequence of mTOR (P42345 1360-2549 limits assumed): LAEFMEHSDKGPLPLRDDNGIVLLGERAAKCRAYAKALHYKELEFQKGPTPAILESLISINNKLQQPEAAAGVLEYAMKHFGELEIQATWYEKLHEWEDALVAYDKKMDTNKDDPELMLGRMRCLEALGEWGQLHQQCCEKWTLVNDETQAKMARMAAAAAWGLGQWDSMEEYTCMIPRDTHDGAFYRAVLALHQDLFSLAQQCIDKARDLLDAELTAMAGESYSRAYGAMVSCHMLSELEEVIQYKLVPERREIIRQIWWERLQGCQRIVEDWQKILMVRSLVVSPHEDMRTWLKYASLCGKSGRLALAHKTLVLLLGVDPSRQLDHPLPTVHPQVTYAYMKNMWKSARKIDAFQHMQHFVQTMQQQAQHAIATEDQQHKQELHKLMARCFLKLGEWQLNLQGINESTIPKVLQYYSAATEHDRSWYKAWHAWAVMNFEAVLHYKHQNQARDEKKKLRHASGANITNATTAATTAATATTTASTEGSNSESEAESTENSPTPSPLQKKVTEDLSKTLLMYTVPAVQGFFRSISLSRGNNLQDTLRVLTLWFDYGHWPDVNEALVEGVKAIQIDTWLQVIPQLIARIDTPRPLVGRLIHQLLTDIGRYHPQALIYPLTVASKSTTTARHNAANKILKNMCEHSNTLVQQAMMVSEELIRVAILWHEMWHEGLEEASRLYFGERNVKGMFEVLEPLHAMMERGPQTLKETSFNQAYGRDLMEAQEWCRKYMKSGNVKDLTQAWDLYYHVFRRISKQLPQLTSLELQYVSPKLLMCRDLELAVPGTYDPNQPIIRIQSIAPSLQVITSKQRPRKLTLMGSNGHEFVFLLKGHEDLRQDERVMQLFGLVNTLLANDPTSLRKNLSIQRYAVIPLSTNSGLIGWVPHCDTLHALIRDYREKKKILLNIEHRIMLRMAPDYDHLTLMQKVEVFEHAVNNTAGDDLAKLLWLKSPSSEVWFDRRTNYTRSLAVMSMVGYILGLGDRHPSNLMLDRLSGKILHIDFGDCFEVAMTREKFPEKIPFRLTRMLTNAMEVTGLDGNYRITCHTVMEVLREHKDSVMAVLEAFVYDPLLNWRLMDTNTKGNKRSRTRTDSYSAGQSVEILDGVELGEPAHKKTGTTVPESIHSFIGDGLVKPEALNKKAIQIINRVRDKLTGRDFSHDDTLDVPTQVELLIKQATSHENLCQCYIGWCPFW
# Sequence of PI3K-gamma (P48736 whole entry, species assumed): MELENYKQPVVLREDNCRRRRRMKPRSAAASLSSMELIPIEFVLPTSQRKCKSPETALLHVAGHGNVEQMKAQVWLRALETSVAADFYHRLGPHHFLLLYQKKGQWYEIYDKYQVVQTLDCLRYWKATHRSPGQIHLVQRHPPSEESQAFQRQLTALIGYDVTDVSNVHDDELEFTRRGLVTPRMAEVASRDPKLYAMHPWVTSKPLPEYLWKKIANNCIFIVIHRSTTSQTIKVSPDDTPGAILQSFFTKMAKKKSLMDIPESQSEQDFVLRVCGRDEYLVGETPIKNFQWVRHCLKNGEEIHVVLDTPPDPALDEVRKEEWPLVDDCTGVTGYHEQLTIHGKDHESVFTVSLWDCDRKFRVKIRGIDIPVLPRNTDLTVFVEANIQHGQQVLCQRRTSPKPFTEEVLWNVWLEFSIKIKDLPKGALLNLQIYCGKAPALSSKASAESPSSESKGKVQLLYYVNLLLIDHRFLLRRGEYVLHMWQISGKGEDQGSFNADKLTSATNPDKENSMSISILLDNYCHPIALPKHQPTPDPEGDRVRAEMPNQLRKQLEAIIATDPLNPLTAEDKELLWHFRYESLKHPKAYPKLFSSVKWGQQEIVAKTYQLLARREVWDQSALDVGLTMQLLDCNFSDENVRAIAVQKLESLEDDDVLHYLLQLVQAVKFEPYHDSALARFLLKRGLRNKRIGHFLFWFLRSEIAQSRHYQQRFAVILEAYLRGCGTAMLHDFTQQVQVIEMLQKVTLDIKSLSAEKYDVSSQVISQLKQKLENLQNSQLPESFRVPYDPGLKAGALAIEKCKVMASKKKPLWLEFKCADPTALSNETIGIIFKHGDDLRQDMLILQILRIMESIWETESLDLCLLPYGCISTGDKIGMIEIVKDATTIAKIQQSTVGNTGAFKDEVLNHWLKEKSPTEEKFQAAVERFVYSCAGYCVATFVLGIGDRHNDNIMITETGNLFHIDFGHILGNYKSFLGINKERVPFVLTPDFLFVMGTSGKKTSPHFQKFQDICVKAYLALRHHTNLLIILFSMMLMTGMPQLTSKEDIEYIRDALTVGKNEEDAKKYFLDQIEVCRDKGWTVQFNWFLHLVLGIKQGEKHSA
Compound,IC50 (PI3K-gamma) [nM],IC50 (mTOR) [nM],IC50 (PI3K-alpha) [nM],IC50 (LNCap) [nM],IC50 (MDA468) [nM]
CCN(CC)c1cc(N2C3CCC2COC3)nc(-c2ccc(NC(=O)Nc3ccc(N4CCN(C)CC4)cc3)cc2)n1 [1-{4-[4-(diethylamino)-6-(3-oxa-8-azabicyclo[3.2.1]oct-8-yl)pyrimidin-2-yl]phenyl}-3-[4-(4-methylpiperazin-1-yl)phenyl]urea],3390,5.85,2910,132,560
"CN1CCN(c2ccc(NC(=O)Nc3ccc(-c4nc(N5C6CCC5COC6)cc(N5C[C@H]6C[C@@H]5CO6)n4)cc3)cc2)CC1 [1-[4-(4-methylpiperazin-1-yl)phenyl]-3-(4-{4-[(1R,4R)-2-oxa-5-azabicyclo[2.2.1]hept-5-yl]-6-(3-oxa-8-azabicyclo[3.2.1]oct-8-yl)pyrimidin-2-yl}phenyl)urea]",8710,7.55,2090,40,48
CC(C)Nc1cc(N2C3CCC2COC3)nc(-c2ccc(NC(=O)Nc3ccc(CN4CCCC4)cc3)cc2)n1 [1-(4-{4-[(1-methylethyl)amino]-6-(3-oxa-8-azabicyclo[3.2.1]oct-8-yl)pyrimidin-2-yl}phenyl)-3-[4-(pyrrolidin-1-ylmethyl)phenyl]urea],3580,2.95,1090,110,80
CN1CCN(c2ccc(NC(=O)Nc3ccc(-c4nc(C5CCOCC5)cc(N5C6CCC5COC6)n4)cc3)cc2)CC1 [1-[4-(4-methylpiperazin-1-yl)phenyl]-3-{4-[4-(3-oxa-8-azabicyclo[3.2.1]oct-8-yl)-6-(tetrahydro-2H-pyran-4-yl)pyrimidin-2-yl]phenyl}urea],4730,0.855,1060,≤ 0.8,4
"O=C(Nc1ccc(-c2nc(N3C4CCC3COC4)cc(N3C4CCC3COC4)n2)cc1)Nc1cccnc1 [1-[4-(4,6-di-3-oxa-8-azabicyclo[3.2.1]oct-8-ylpyrimidin-2-yl)phenyl]-3-pyridin-3-ylurea]",4490,0.58,1130,0.8,5
CS(=O)(=O)CCNc1cc(N2C3CCC2COC3)nc(-c2ccc(NC(=O)Nc3cccnc3)cc2)n1 [1-{4-[4-{[2-(methylsulfonyl)ethyl]amino}-6-(3-oxa-8-azabicyclo[3.2.1]oct-8-yl)pyrimidin-2-yl]phenyl}-3-pyridin-3-ylurea],≥ 10000,5,1640,2000,800
"CN1CCN(c2ccc(NC(=O)Nc3ccc(-c4nc(N5C6CCC5COC6)c(Cl)c(N5C6CCC5COC6)n4)cc3)cc2)CC1 [1-[4-(5-chloro-4,6-di-3-oxa-8-azabicyclo[3.2.1]oct-8-ylpyrimidin-2-yl)phenyl]-3-[4-(4-methylpiperazin-1-yl)phenyl]urea]",1020,0.505,998,65,210
CNC(=O)Nc1ccc(-c2nc(CN(C)C)cc(N3C4CCC3COC4)n2)cc1 [1-(4-{4-[(dimethylamino)methyl]-6-(3-oxa-8-azabicyclo[3.2.1]oct-8-yl)pyrimidin-2-yl}phenyl)-3-methylurea],> 10000,77,8000,3600,7000
C[C@@H]1COCCN1c1cc(N2C3CCC2COC3)nc(-c2ccc(NC(=O)Nc3ccc(OCCN(C)C)cc3)cc2)n1 [1-{4-[2-(dimethylamino)ethoxy]phenyl}-3-(4-{4-[(3R)-3-methylmorpholin-4-yl]-6-(3-oxa-8-azabicyclo[3.2.1]oct-8-yl)pyrimidin-2-yl}phenyl)urea],6470,1.55,853,4,13
"O=C(Nc1ccncc1)Nc1ccc(-c2nc(N3C4CCC3COC4)cc(N3C[C@H]4C[C@@H]3CO4)n2)cc1 [1-(4-{4-[(1R,4R)-2-oxa-5-azabicyclo[2.2.1]hept-5-yl]-6-(3-oxa-8-azabicyclo[3.2.1]oct-8-yl)pyrimidin-2-yl}phenyl)-3-pyridin-4-ylurea]",7430,2.25,1890,90,110
"C[C@@H]1CN(c2cc(N3C4CCC3COC4)nc(-c3ccc(NC(=O)Nc4ccncc4)cc3)n2)C[C@H](C)O1 [1-(4-{4-[(2R,6S)-2,6-dimethylmorpholin-4-yl]-6-(3-oxa-8-azabicyclo[3.2.1]oct-8-yl)pyrimidin-2-yl}phenyl)-3-pyridin-4-ylurea]",5370,2.6,1340,50,280
"C[C@@H]1CN(c2cc(N3C4CCC3COC4)nc(-c3ccc(NC(=O)Nc4ccc(C(=O)N5CCN(C)CC5)cc4)cc3)n2)C[C@H](C)O1 [1-(4-{4-[(2R,6S)-2,6-dimethylmorpholin-4-yl]-6-(3-oxa-8-azabicyclo[3.2.1]oct-8-yl)pyrimidin-2-yl}phenyl)-3-{4-[(4-methylpiperazin-1-yl)carbonyl]phenyl}urea]",1030,3.55,180,≤ 0.8,0.8
CC(C)Nc1cc(N2C3CCC2COC3)nc(-c2ccc(NC(=O)Nc3ccc(CN(C)C)cc3)cc2)n1 [1-{4-[(dimethylamino)methyl]phenyl}-3-(4-{4-[(1-methylethyl)amino]-6-(3-oxa-8-azabicyclo[3.2.1]oct-8-yl)pyrimidin-2-yl}phenyl)urea],3880,2.65,1190,120,120
CCN(CC)c1cc(N2C3CCC2COC3)nc(-c2ccc(NC(=O)Nc3ccncc3)cc2)n1 [1-{4-[4-(diethylamino)-6-(3-oxa-8-azabicyclo[3.2.1]oct-8-yl)pyrimidin-2-yl]phenyl}-3-pyridin-4-ylurea],1990,4.55,2410,–,–
CN1CCN(Cc2ccc(NC(=O)Nc3ccc(-c4nc(CS(C)(=O)=O)cc(N5CC6CCC(C5)O6)n4)cc3)cc2)CC1 [1-{4-[(4-methylpiperazin-1-yl)methyl]phenyl}-3-(4-{4-[(methylsulfonyl)methyl]-6-(8-oxa-3-azabicyclo[3.2.1]oct-3-yl)pyrimidin-2-yl}phenyl)urea],–,4.05,520,80,140
O=C(Nc1ccc(-c2nc(-c3ccccc3)cc(N3CC4CCC(C3)O4)n2)cc1)OCCO [2-hydroxyethyl {4-[4-(8-oxa-3-azabicyclo[3.2.1]oct-3-yl)-6-phenylpyrimidin-2-yl]phenyl}carbamate],–,21.5,452,600,5500
CC(C)Oc1cc(N2CC3CCC(C2)O3)nc(-c2ccc(NC(=O)Nc3ccncc3)cc2)n1 [1-{4-[4-(1-methylethoxy)-6-(8-oxa-3-azabicyclo[3.2.1]oct-3-yl)pyrimidin-2-yl]phenyl}-3-pyridin-4-ylurea],–,1.35,264,23,180
"CN1CCN(C(=O)c2ccc(NC(=O)Nc3ccc(-c4nc(N5C6CCC5COC6)cc(N5C6CCC5COC6)n4)cc3)cc2)CC1 [1-[4-(4,6-di-3-oxa-8-azabicyclo[3.2.1]oct-8-ylpyrimidin-2-yl)phenyl]-3-{4-[(4-methylpiperazin-1-yl)carbonyl]phenyl}urea]",–,0.94,129,≤ 0.8,0.8
Nc1ccc(-c2nccc(N3CC4CCC(C3)O4)n2)cc1 [4-[4-(8-oxa-3-azabicyclo[3.2.1]oct-3-yl)pyrimidin-2-yl]aniline],–,4000,6850,41000,≥ 60000

# — patent US8835429B2, “Pyrimidine compounds, their use as mTOR kinase and Pl3 kinase inhibitors, and their syntheses” (Wyeth LLC, priority 2009, dated 2014)
